Assay results from US10233188B2, “CDK2/4/6 inhibitors” (priority 2016, dated 2019).

Columns and labels:
CDK2/Cyclin E1 = CDK2/Cyclin E1 (Homo sapiens (Human), UniProt P24941); experiment: biochemical; conditions: CDK2_Ki (nM), phosphorylated CDK2/Cyclin E1, 150 μM ATP, Morrison tight-binding fit
Procedure: The assay was initiated with the addition of ATP, following a fifteen minutes pre-incubation of enzyme and inhibitor at room temperature in the reaction mixture. The reaction was stopped after 45 minutes at room temperature by the addition of 50 μL of 80 mM EDTA, pH 7.5.

CDK6/Cyclin D1 = CDK6/Cyclin D1 (Homo sapiens (Human), UniProt Q00534); experiment: biochemical; conditions: CDK6_Ki (nM), non-phosphorylated CDK6/Cyclin D1, 2 mM ATP, Morrison fit
CDK6/Cyclin D1, sequence (Q00534 whole entry): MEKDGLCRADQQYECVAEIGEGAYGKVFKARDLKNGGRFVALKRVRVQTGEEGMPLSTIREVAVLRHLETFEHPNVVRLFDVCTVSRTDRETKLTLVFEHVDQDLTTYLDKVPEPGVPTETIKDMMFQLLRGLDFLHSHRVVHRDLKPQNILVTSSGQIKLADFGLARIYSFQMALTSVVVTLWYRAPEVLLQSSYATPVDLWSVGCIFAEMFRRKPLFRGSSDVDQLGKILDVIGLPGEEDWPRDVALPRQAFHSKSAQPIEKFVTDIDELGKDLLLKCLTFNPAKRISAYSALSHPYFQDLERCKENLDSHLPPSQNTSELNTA
CDK6/Cyclin D1, sequence (P24385 whole entry partner): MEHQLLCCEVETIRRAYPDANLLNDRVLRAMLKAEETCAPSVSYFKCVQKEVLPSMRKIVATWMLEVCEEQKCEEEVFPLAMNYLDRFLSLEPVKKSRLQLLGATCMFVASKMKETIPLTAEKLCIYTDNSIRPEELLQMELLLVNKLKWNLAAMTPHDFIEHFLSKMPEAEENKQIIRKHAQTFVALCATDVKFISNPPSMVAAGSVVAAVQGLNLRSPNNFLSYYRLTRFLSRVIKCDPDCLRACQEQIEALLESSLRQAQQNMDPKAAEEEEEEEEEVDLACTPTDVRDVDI

Structure (SMILES): Cn1cnc(S(=O)(=O)N2CCC(Nc3ncc4ccc(=O)n([C@H]5CCC[C@]5(C)O)c4n3)CC2)c1 (single isomer, unassigned) [Example 85, (+)-8-[(1R*,2R*)-2-hydroxy-2-methylcyclopentyl]-2-({1-[(1-methyl-1H-imidazol-4-yl)sulfonyl]piperidin-4-yl}amino)pyrido[2,3-d]pyrimidin-7(8H)-one]
- Ki (CDK2/Cyclin E1): 1.98 nM
- Ki (CDK6/Cyclin D1): 8.29 nM

Structure (SMILES): C[C@@]1(O)CCC[C@H]1n1c(=O)c(Cl)cc2cnc(NC3CCN(S(N)(=O)=O)CC3)nc21 (single isomer, unassigned) [Example 128, (−)-4-({6-chloro-8-[(1R*,2R*)-2-hydroxy-2-methylcyclopentyl]-7-oxo-7,8-dihydropyrido[2,3-d]pyrimidin-2-yl}amino)piperidine-1-sulfonamide]
- Ki (CDK2/Cyclin E1): 0.12 nM
- Ki (CDK6/Cyclin D1): 0.53 nM

Structure (SMILES): CS(=O)(=O)N1CCC(Nc2ncc3ccc(=O)n([C@H]4C[C@H](O)CC[C@@H]4F)c3n2)CC1 (single isomer, unassigned) [Example 217, (+)-8-[(1S*,2S*,5R*)-2-fluoro-5-hydroxycyclohexyl]-2-{[1-(methylsulfonyl)piperidin-4-yl]amino}pyrido[2,3-d]pyrimidin-7(8H)-one]
- Ki (CDK2/Cyclin E1): 0.55 nM
- Ki (CDK6/Cyclin D1): 2 nM

Structure (SMILES): CS(=O)(=O)N1CCC(Nc2ncc3cc(CC(F)F)c(=O)n([C@@H]4CC[C@@H](O)C4)c3n2)CC1 (single isomer, unassigned) [Example 172, (−)-6-(2,2-difluoroethyl)-8-[(1R*,3R*)-3-hydroxycyclopentyl]-2-{[1-(methylsulfonyl)piperidin-4-yl]amino}pyrido[2,3-d]pyrimidin-7(8H)-one]
- Ki (CDK2/Cyclin E1): 4.38 nM
- Ki (CDK6/Cyclin D1): 2.08 nM

Structure (SMILES): Cc1cc2cnc(NC3CCN(S(C)(=O)=O)CC3)nc2n([C@@H]2C[C@H](O)C[C@@H]2C)c1=O (single isomer, unassigned) [Example 199, (−)-8-[(1R*,2S*,4R*)-4-hydroxy-2-methylcyclopentyl]-6-methyl-2-{[1-(methylsulfonyl)piperidin-4-yl]amino}pyrido[2,3-d]pyrimidin-7(8H)-one]
- Ki (CDK2/Cyclin E1): 2.92 nM
- Ki (CDK6/Cyclin D1): 1.09 nM

Structure (SMILES): CNS(=O)(=O)N1CCC(Nc2ncc3ccc(=O)n([C@@H]4CCC[C@@H]4C)c3n2)CC1 [Example 44, N-methyl-4-({8-[(1R,2S)-2-methylcyclopentyl]-7-oxo-7,8-dihydropyrido[2,3-d]pyrimidin-2-yl}amino)piperidine-1-sulfonamide]
- Ki (CDK2/Cyclin E1): 0.09 nM
- Ki (CDK6/Cyclin D1): 0.82 nM

Structure (SMILES): CS(=O)(=O)N1CCC(Nc2ncc3cc(Cl)c(=O)n([C@H]4CC[C@H](O)C4)c3n2)CC1 (single isomer, unassigned) [Example 169, (+)-6-chloro-8-[(1R*,3R*)-3-hydroxycyclopentyl]-2-{[1-(methylsulfonyl)piperidin-4-yl]amino}pyrido[2,3-d]pyrimidin-7(8H)-one]
- Ki (CDK2/Cyclin E1): 2.76 nM
- Ki (CDK6/Cyclin D1): 1.11 nM

Structure (SMILES): CNS(=O)(=O)N1CCC(Nc2ncc3cc(Cl)c(=O)n([C@@H]4CCC[C@@]4(C)O)c3n2)CC1 (single isomer, unassigned) [Example 126, (−)-4-({6-chloro-8-[(1R*,2R*)-2-hydroxy-2-methylcyclopentyl]-7-oxo-7,8-dihydropyrido[2,3-d]pyrimidin-2-yl}amino)-N-methylpiperidine-1-sulfonamide]
- Ki (CDK2/Cyclin E1): 0.2 nM
- Ki (CDK6/Cyclin D1): 0.96 nM

Structure (SMILES): CC[C@@]1(O)CCC[C@H]1n1c(=O)ccc2cnc(NC3CCN(S(C)(=O)=O)CC3)nc21 (single isomer, unassigned) [Example 193, (−)-(8-[(1R*,2R*)-2-ethyl-2-hydroxycyclopentyl]-2-{[1-(methylsulfonyl)piperidin-4-yl]amino}pyrido[2,3-d]pyrimidin-7(8H)-one]
- Ki (CDK2/Cyclin E1): 2.55 nM
- Ki (CDK6/Cyclin D1): 2.27 nM

Structure (SMILES): Cc1cc2cnc(NC3CCN(S(C)(=O)=O)CC3)nc2n([C@@H]2COC[C@@]2(C)O)c1=O (single isomer, unassigned) [Example 197, (−)-8-[(3R*,4S*)-4-hydroxy-4-methyltetrahydrofuran-3-yl]-6-methyl-2-{[1-(methylsulfonyl)piperidin-4-yl]amino}pyrido[2,3-d]pyrimidin-7(8H)-one]
- Ki (CDK2/Cyclin E1): 4.26 nM
- Ki (CDK6/Cyclin D1): 4.78 nM

Structure (SMILES): CC(C)S(=O)(=O)N1CCC(Nc2ncc3cc(CCO)c(=O)n(C4CCCC4)c3n2)CC1 [Example 136, 8-cyclopentyl-6-(2-hydroxyethyl)-2-{[1-(propan-2-ylsulfonyl)piperidin-4-yl]amino}pyrido[2,3-d]pyrimidin-7(8H)-one]
- Ki (CDK2/Cyclin E1): 3.14 nM
- Ki (CDK6/Cyclin D1): 1.35 nM

Structure (SMILES): Cc1cc2cnc(NC3CCN(S(C)(=O)=O)CC3)nc2n([C@@H]2CCC[C@@H]2C)c1=O [Example 37, 6-methyl-8-[(1R,2S)-2-methylcyclopentyl]-2-{[1-(methylsulfonyl)piperidin-4-yl]amino}pyrido[2,3-d]pyrimidin-7(8H)-one]
- Ki (CDK2/Cyclin E1): 0.06 nM
- Ki (CDK6/Cyclin D1): 0.06 nM

Structure (SMILES): CS(=O)(=O)N1CCC(Nc2ncc3cc(CCO)c(=O)n(C4CCCCCC4)c3n2)CC1 [Example 165, 8-cycloheptyl-6-(2-hydroxyethyl)-2-{[1-(methylsulfonyl)piperidin-4-yl]amino}-pyrido[2,3-d]pyrimidin-7(8H)-one]
- Ki (CDK2/Cyclin E1): 1.51 nM
- Ki (CDK6/Cyclin D1): 2.65 nM

Structure (SMILES): C[C@@H]1[C@@H](O)CC[C@@H]1n1c(=O)ccc2cnc(NC3CCN(S(C)(=O)=O)CC3)nc21 (single isomer, unassigned) [Example 209, (+)-8-[(1R*,2R*,3R*)-3-hydroxy-2-methylcyclopentyl]-2-{[1-(methylsulfonyl)piperidin-4-yl]amino}pyrido[2,3-d]pyrimidin-7(8H)-one]
- Ki (CDK2/Cyclin E1): 0.5 nM
- Ki (CDK6/Cyclin D1): 0.75 nM

Structure (SMILES): COCc1cc2cnc(NC3CCN(S(C)(=O)=O)CC3)nc2n([C@H]2CCC[C@H]2C)c1=O [Example 49, 6-(methoxymethyl)-8-[(1S,2R)-2-methylcyclopentyl]-2-{[1-(methylsulfonyl)piperidin-4-yl]amino}pyrido[2,3-d]pyrimidin-7(8H)-one]
- Ki (CDK2/Cyclin E1): 4.43 nM
- Ki (CDK6/Cyclin D1): 1.63 nM

Structure (SMILES): C[C@@]1(O)CCC[C@H]1n1c(=O)c(C(F)(F)F)cc2cnc(NC3CCN(S(C)(=O)=O)CC3)nc21 [Example 132, 8-[(1R,2R)-2-hydroxy-2-methylcyclopentyl]-2-{[1-(methylsulfonyl)piperidin-4-yl]amino}-6-(trifluoromethyl)pyrido[2,3-d]pyrimidin-7(8H)-one]
- Ki (CDK2/Cyclin E1): 0.57 nM
- Ki (CDK6/Cyclin D1): 0.37 nM

Structure (SMILES): CCS(=O)(=O)N1CCC(Nc2ncc3ccc(=O)n(C4CCCC4)c3n2)CC1 [Example 16, 8-cyclopentyl-2-{[1-(ethylsulfonyl)piperidin-4-yl]amino}pyrido[2,3-d]pyrimidin-7(8H)-one]
- Ki (CDK2/Cyclin E1): 0.48 nM
- Ki (CDK6/Cyclin D1): 1.14 nM

Structure (SMILES): Cc1cc2cnc(NC3CCN(S(N)(=O)=O)CC3)nc2n(C2CCCC2)c1=O [Example 25, 4-[(8-cyclopentyl-6-methyl-7-oxo-7,8-dihydropyrido[2,3-d]pyrimidin-2-yl)amino]piperidine-1-sulfonamide]
- Ki (CDK2/Cyclin E1): 0.22 nM
- Ki (CDK6/Cyclin D1): 0.23 nM

Structure (SMILES): C[C@]1(O)CCC[C@@H]1n1c(=O)ccc2cnc(NC3CCN(S(=O)(=O)CF)CC3)nc21 (single isomer, unassigned) [Example 59, (+)-2-({1-[(fluoromethyl)sulfonyl]piperidin-4-yl}amino)-8-[(1R*,2R*)-2-hydroxy-2-methylcyclopentyl]pyrido[2,3-d]pyrimidin-7(8H)-one]
- Ki (CDK2/Cyclin E1): 4.13 nM
- Ki (CDK6/Cyclin D1): 3.37 nM

Structure (SMILES): C[C@]1(O)CCC[C@@H]1n1c(=O)c(CC#N)cc2cnc(NC3CCN(S(C)(=O)=O)CC3)nc21 (single isomer, unassigned) [Example 121, (+)-(8-[(1R*,2R*)-2-hydroxy-2-methylcyclopentyl]-2-{[1-(methylsulfonyl)piperidin-4-yl]amino}-7-oxo-7,8-dihydropyrido[2,3-d]pyrimidin-6-yl)acetonitrile]
- Ki (CDK2/Cyclin E1): 2.15 nM
- Ki (CDK6/Cyclin D1): 0.82 nM

Structure (SMILES): C[C@@]1(O)CCC[C@H]1n1c(=O)ccc2cnc(NC3CCN(S(=O)(=O)C(F)(F)F)CC3)nc21 (single isomer, unassigned) [Example 88, (−)-8-[(1R*,2R*)-2-hydroxy-2-methylcyclopentyl]-2-({1-[(trifluoromethyl)sulfonyl]piperidin-4-yl}amino)pyrido[2,3-d]pyrimidin-7(8H)-one]
- Ki (CDK2/Cyclin E1): 1.34 nM
- Ki (CDK6/Cyclin D1): 1.99 nM

Structure (SMILES): C[C@]1(O)CCC[C@@H]1n1c(=O)ccc2cnc(NC3CCN(S(=O)(=O)CC(F)(F)F)CC3)nc21 (single isomer, unassigned) [Example 87, (+)-8-[(1R*,2R*)-2-hydroxy-2-methylcyclopentyl]-2-({1-[(2,2,2-trifluoroethyl)sulfonyl]piperidin-4-yl}amino)pyrido[2,3-d]pyrimidin-7(8H)-one]
- Ki (CDK2/Cyclin E1): 4.38 nM
- Ki (CDK6/Cyclin D1): 8.23 nM

Structure (SMILES): Cc1cc2cnc(NC3CCN(S(C)(=O)=O)CC3)nc2n(C2CCCCC(O)C2)c1=O (single isomer, unassigned; isomer d) [Example 226, 8-(3-hydroxycycloheptyl)-6-methyl-2-{[1-(methylsulfonyl)piperidin-4-yl]amino}pyrido[2,3-d]pyrimidin-7(8H)-one-Isomer D]
- Ki (CDK2/Cyclin E1): 310 nM
- Ki (CDK6/Cyclin D1): 6.58 nM

Structure (SMILES): CS(=O)(=O)N1CCC(Nc2ncc3cc(C(F)F)c(=O)n([C@H]4CC[C@H](O)C4)c3n2)CC1 (relative stereo) [Example 134, (+)-6-(difluoromethyl)-8-[(1R*,3R*)-3-hydroxycyclopentyl]-2-{[1-(methylsulfonyl)piperidin-4-yl]amino}pyrido[2,3-d]pyrimidin-7(8H)-one]
- Ki (CDK2/Cyclin E1): 1.25 nM
- Ki (CDK6/Cyclin D1): 0.53 nM

Structure (SMILES): CS(=O)(=O)N1CC[C@H](Nc2ncc3cc(CC(N)=O)c(=O)n(C4CCCC4)c3n2)[C@@H](F)C1 (single isomer, unassigned) [Example 160, (−)-2-(8-cyclopentyl-2-{[(3S*,4S*)-3-fluoro-1-(methylsulfonyl)piperidin-4-yl]amino}-7-oxo-7,8-dihydropyrido[2,3-d]pyrimidin-6-yl)acetamide]
- Ki (CDK2/Cyclin E1): 4.07 nM
- Ki (CDK6/Cyclin D1): 3.55 nM

Structure (SMILES): COCc1cc2cnc(NC3CCN(S(C)(=O)=O)CC3)nc2n(C2CCCC2)c1=O [Example 142, 8-cyclopentyl-6-(methoxymethyl)-2-{[1-(methylsulfonyl)piperidin-4-yl]amino}pyrido[2,3-d]pyrimidin-7(8H)-one]
- Ki (CDK2/Cyclin E1): 1.88 nM
- Ki (CDK6/Cyclin D1): 0.55 nM
